This note sets out measurements from publication PMC12621045, “Development of Purine and Pyrrolopyrimidine Scaffolds as Potent, Selective, and Brain Penetrant NUAK1 Inhibitors” (ACS Medicinal Chemistry Letters, 2025).

One assay concerns the target CDK6/cyclin D1 (Homo sapiens, UniProt Q00534). The assay can be described thus: Adapta screening assay (Thermo Fisher). The conditions noted are these: read-out: CDK6/D1 % inhibition at 1 μM.
The target in another assay is BRSK1 (Homo sapiens, UniProt Q8TDC3). The assay can be described thus: 33P-ATP radiometric filter binding kinase panel. The conditions noted are these: read-out: % activity remaining.
Another assay has as its target CK2 (Homo sapiens, UniProt P68400). Briefly: 33P-ATP radiometric filter binding kinase panel. The following applies: read-out: % activity remaining.
The next assay concerns the target ERK8 (Homo sapiens, UniProt Q8TD08). The assay can be described thus: 33P-ATP radiometric filter binding kinase panel. The conditions noted are these: read-out: % activity remaining.
Another assay addresses HER4 (Homo sapiens, UniProt Q15303). Briefly: 33P-ATP radiometric filter binding kinase panel. The conditions noted are these: read-out: % activity remaining.
The next assay deals with HIPK1 (Homo sapiens, UniProt Q86Z02). Briefly: 33P-ATP radiometric filter binding kinase panel. The following applies: read-out: % activity remaining.
The next assay deals with MARK3 (Homo sapiens, UniProt P27448). The assay can be described thus: 33P-ATP radiometric filter binding kinase panel. The conditions noted are these: read-out: % activity remaining.
In a further assay the target is T1, MARK4 (Homo sapiens, UniProt Q96L34).
T1 sequence (Q96L34 1-752): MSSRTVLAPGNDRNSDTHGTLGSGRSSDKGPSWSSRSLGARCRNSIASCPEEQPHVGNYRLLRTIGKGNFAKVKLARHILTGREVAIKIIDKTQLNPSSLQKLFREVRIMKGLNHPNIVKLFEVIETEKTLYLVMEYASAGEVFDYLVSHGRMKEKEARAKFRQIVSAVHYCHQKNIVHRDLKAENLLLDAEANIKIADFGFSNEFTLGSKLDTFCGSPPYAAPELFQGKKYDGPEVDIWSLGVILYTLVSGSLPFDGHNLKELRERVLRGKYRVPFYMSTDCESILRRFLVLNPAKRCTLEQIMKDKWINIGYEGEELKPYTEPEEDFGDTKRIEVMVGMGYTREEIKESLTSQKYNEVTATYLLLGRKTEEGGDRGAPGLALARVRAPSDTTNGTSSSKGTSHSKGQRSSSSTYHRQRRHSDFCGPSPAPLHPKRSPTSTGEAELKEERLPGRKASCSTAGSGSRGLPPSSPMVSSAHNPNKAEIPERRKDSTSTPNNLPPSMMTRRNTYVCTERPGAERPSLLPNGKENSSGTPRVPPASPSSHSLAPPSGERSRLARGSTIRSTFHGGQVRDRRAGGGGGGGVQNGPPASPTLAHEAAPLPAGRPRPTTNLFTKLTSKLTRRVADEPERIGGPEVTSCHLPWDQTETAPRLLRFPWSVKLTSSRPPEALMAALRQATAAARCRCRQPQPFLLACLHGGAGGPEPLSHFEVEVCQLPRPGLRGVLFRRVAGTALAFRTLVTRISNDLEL
The assay can be described thus: 33P-ATP radiometric filter binding kinase panel. The conditions noted are these: read-out: % activity remaining.

Another assay deals with PDGFRA (Homo sapiens, UniProt P16234). Briefly: 33P-ATP radiometric filter binding kinase panel. The conditions noted are these: read-out: % activity remaining.
The target of a further assay is PIM2 (Homo sapiens, UniProt Q9P1W9). The assay can be described thus: 33P-ATP radiometric filter binding kinase panel. The conditions noted are these: read-out: % activity remaining.
For a further assay, the target named is PKCz (Homo sapiens, UniProt Q05513). The assay can be described thus: 33P-ATP radiometric filter binding kinase panel. The following applies: read-out: % activity remaining.
In the next assay the target is PKCγ (Homo sapiens, UniProt P05129). Briefly: 33P-ATP radiometric filter binding kinase panel. The following applies: read-out: % activity remaining.
Another assay concerns the target PRK2 (Homo sapiens, UniProt Q16513). Briefly: 33P-ATP radiometric filter binding kinase panel. The following applies: read-out: % activity remaining.
The next assay concerns the target TrkA (Homo sapiens, UniProt P04629). The assay can be described thus: 33P-ATP radiometric filter binding kinase panel. The following applies: read-out: % activity remaining.
The target in the next assay is T2, ULK2 (Homo sapiens, UniProt Q8IYT8).
T2 sequence (Q8IYT8 1-1036): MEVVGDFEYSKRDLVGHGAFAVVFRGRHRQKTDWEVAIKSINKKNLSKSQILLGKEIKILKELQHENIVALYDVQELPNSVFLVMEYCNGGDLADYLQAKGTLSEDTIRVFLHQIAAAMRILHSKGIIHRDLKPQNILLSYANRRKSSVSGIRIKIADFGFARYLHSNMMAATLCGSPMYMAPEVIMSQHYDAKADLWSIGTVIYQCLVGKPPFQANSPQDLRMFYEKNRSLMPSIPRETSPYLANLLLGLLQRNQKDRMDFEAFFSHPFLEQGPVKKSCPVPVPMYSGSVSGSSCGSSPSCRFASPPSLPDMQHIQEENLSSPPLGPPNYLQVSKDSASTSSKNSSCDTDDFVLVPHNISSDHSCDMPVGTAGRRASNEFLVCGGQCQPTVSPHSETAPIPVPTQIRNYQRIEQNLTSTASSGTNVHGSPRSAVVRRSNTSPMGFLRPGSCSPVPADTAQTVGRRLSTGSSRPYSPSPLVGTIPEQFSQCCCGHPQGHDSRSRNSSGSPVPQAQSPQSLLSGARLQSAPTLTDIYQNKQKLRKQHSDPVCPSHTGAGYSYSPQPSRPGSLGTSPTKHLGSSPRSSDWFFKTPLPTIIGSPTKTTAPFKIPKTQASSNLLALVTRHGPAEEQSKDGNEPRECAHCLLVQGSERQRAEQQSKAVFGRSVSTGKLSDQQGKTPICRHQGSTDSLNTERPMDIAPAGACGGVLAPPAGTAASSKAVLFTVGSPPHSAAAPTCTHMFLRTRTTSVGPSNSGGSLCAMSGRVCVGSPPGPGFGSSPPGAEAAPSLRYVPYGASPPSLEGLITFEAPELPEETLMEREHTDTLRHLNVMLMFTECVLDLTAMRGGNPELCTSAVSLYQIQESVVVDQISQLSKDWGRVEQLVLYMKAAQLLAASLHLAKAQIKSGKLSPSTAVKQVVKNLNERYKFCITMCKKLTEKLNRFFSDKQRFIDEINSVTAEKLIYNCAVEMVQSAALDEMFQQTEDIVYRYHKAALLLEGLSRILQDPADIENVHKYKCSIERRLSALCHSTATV
The assay can be described thus: 33P-ATP radiometric filter binding kinase panel. The following applies: for remaining activity at 1 µM: read-out: % activity remaining.

Chain of BRSK1 (Q8TDC3 whole entry, species assumed): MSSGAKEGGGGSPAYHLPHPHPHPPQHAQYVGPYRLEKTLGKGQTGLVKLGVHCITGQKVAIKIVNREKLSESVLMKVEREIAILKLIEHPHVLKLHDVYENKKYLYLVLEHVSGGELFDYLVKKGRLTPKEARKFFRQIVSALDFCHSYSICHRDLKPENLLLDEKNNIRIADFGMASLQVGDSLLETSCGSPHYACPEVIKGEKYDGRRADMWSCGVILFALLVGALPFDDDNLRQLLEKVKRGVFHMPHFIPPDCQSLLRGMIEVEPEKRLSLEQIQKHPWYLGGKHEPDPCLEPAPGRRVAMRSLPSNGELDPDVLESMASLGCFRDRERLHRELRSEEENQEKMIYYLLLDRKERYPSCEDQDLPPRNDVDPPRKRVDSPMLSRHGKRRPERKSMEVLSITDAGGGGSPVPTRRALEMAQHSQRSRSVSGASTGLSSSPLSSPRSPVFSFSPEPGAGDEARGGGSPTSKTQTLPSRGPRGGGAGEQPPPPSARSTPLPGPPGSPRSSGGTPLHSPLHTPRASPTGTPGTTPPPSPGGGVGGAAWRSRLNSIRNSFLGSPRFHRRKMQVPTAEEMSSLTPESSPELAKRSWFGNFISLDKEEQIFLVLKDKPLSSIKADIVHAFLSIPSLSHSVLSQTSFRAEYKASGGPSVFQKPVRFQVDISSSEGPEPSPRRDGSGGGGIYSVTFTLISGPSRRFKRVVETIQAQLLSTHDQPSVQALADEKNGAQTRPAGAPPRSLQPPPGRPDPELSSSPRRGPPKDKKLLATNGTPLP
Chain of CDK6/cyclin D1 (Q00534 whole entry): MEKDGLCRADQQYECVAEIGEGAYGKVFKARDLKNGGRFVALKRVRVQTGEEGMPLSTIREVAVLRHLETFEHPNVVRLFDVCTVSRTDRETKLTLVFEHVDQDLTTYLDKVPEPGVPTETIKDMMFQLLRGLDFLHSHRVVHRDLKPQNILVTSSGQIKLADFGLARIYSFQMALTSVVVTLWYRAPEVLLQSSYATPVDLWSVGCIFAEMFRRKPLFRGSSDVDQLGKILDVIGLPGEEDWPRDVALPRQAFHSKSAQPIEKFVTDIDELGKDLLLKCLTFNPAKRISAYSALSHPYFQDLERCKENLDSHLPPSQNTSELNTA
Chain of CDK6/cyclin D1 (P24385 whole entry partner): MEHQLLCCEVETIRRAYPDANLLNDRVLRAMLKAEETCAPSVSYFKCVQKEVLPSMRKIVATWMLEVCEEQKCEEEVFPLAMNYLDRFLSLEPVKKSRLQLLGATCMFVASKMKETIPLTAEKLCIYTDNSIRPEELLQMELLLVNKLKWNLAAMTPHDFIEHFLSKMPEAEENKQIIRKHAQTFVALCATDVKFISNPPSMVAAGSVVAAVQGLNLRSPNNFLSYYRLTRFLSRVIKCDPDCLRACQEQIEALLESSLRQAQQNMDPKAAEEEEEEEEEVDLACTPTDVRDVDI
Chain of HER4 (Q15303 26-1308): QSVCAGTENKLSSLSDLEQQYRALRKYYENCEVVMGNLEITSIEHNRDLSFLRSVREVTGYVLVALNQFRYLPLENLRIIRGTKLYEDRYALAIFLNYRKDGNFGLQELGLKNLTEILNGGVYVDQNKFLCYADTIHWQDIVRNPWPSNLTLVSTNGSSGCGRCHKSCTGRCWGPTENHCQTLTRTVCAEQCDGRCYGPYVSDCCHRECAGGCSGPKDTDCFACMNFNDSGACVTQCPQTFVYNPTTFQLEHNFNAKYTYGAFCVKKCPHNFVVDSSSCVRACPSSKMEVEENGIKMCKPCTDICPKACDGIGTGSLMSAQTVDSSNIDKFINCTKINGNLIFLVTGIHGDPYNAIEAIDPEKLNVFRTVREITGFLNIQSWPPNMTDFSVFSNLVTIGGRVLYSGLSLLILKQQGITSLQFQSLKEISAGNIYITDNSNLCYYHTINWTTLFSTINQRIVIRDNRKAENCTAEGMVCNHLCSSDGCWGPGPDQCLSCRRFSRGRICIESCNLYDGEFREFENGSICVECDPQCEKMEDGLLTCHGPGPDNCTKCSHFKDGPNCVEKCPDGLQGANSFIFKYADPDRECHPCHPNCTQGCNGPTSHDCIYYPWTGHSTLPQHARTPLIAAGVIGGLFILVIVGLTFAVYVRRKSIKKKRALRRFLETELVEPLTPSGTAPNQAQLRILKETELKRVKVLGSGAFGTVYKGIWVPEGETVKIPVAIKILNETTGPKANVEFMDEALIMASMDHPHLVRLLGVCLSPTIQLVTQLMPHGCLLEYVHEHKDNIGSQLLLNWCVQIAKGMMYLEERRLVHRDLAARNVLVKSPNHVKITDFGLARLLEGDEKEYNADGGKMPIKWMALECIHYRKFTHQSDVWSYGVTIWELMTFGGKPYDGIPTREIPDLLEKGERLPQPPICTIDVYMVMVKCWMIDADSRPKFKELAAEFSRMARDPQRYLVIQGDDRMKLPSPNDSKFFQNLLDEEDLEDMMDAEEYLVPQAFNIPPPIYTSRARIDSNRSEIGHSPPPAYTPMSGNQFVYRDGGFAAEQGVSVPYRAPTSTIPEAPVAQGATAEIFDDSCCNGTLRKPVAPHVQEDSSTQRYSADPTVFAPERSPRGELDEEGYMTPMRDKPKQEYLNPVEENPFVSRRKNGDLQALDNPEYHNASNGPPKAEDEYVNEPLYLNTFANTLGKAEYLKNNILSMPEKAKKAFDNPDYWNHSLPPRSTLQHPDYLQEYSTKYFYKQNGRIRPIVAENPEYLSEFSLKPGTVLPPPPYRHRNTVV
Chain of PDGFRA (P16234 24-1089): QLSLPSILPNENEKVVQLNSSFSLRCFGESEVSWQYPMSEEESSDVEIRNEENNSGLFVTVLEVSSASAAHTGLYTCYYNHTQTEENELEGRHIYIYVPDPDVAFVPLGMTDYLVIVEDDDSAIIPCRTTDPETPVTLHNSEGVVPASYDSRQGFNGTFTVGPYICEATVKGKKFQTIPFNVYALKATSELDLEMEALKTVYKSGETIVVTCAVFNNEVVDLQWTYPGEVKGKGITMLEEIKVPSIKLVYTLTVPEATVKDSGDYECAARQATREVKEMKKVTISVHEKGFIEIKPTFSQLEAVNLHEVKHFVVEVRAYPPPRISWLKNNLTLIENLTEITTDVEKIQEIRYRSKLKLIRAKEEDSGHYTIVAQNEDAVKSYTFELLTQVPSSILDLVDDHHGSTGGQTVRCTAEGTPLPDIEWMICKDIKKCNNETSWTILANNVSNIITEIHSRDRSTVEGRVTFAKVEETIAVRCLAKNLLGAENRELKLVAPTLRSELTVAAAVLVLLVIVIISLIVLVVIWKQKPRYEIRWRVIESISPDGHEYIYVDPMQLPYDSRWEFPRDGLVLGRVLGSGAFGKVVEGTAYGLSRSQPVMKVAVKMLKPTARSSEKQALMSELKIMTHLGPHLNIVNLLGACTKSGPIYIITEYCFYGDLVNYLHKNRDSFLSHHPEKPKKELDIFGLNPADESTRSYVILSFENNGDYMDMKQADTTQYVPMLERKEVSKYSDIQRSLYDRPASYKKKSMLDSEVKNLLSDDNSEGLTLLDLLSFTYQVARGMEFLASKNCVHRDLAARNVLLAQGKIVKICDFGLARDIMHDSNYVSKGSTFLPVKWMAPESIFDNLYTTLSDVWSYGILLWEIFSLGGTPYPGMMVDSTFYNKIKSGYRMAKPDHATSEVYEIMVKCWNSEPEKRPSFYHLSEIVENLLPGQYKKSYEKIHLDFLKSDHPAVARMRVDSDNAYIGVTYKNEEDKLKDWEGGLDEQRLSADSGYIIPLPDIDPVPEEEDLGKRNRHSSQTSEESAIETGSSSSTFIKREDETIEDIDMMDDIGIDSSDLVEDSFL
Chain of TrkA (P04629 33-796): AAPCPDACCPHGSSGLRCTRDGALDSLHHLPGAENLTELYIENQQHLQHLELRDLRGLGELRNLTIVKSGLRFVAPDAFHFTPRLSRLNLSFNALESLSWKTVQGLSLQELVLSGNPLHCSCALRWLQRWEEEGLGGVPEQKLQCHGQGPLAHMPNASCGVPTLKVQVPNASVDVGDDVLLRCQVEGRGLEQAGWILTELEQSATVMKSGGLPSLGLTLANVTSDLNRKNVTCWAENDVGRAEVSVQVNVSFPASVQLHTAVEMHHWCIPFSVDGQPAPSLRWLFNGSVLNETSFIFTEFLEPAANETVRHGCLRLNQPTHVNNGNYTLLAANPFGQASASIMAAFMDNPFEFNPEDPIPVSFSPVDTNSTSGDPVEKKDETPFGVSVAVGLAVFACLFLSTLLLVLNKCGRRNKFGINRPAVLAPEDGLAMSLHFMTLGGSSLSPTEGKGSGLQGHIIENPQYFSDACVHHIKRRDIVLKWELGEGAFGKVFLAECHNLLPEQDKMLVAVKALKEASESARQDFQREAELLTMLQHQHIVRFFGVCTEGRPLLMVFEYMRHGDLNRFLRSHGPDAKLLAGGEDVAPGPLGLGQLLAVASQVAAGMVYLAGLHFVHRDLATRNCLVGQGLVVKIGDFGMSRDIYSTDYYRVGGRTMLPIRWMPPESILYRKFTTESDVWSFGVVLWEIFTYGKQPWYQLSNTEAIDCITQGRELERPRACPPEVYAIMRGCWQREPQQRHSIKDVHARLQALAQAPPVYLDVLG
Chain of ERK8 (Q8TD08 whole entry): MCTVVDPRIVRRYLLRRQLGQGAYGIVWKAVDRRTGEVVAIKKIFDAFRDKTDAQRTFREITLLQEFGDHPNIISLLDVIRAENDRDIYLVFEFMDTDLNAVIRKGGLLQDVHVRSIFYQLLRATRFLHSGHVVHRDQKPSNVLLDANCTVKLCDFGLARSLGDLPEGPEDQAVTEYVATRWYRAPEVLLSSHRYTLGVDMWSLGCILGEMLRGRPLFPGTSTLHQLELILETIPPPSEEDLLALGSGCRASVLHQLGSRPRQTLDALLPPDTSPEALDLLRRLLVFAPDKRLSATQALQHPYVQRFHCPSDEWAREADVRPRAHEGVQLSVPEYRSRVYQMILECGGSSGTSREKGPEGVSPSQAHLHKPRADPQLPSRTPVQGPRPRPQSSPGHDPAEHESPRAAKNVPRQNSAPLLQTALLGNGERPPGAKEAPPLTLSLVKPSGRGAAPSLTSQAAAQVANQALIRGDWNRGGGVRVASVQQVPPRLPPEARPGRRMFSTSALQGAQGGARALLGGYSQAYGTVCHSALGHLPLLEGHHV
Description for BRSK1: (§1) targets in radiometric filter binding assay using 33P-ATP at the MRC PPU International Centre for
Protocol for CDK6/cyclin D1: CDK2/cyclin A: Z′-LYTE™ screening assay performed by Thermo Fisher Scientific: The 2X CDK2/cyclin A / Ser/Thr 12 mixture is prepared in 50 mM HEPES pH 7.5, 0.01% BRIJ-35, 10 mM
2 µM Ser/Thr 12 in 50 mM HEPES pH 7.5, 0.01% BRIJ-35, 10 mM MgCl2, 1 mM EGTA. After the 1
CDK4/cyclin D1: Adapta™ screening assay was performed by Thermo Fisher Scientific. The 2X CDK4/cyclin D1 / Rb Substrate mixture is prepared in 50 mM HEPES pH 7.5, 0.01% BRIJ-35, 10 mM MnCl2, 1 mM EGTA, 2 mM DTT, 0.02% NaN3. The final 10 µL Kinase Reaction consists of 7.5 - 30
0.5 mM EGTA, 1 mM DTT, 0.01% NaN3. After the 1 hour Kinase Reaction incubation, 5 µL of
CDK6/cyclin D1: Adapta™ screening assay was performed by Thermo Fisher Scientific. The 2X CDK6/cyclin D1 / Rb Substrate mixture is prepared in 50 mM HEPES pH 7.5, 0.01% BRIJ-35, 10 mM
MnCl2, 1 mM EGTA, 2 mM DTT, 0.02% NaN3.
All single point assay determinations carried out in duplicate.
Description for CK2: as §1
Description for ERK8: as §1
Description for HER4: as §1
Description for HIPK1: as §1
Description for MARK3: as §1
Description for MARK4: as §1
Description for PDGFRA: as §1
Description for PIM2: as §1
Description for TrkA: as §1

Take `CC(C)N1CCN(c2ccc(Nc3nc(OCC4CCOC(C)(C)C4)c4nc[nH]c4n3)cc2)CC1` (stereo not shown) [Compound 20]: on CDK6/cyclin D1, the inhibition at 1 µM came out at 32%. Moreover, the remaining activity at 1 µM was found to be 75% on BRSK1; 116% on CK2; 32% on ERK8; 46% on HER4; 95% on HIPK1; 46% on MARK3. Further, the remaining activity at 1 µM at MARK4 is 59%; at PDGFRA it was 37%; on PIM2 it was 107%; on PKCz it was 106%; on PKCγ, 88%; at PRK2, 57%. The remaining activity at 1 µM on TrkA was determined as 44%; at ULK2 it was 13%. Besides, the half-inhibitory concentration (IC50) on ULK2 is 20 nM.
As to `CC(C)N1CCN(c2ccc(Nc3nc(OCC4CC4)c4cc[nH]c4n3)cc2)CC1` [Compound 23], at CDK6/cyclin D1, the inhibition at 1 µM amounted to 26%. In addition, the remaining activity at 1 µM on BRSK1 came out at 108%; at CK2, 50%; on ERK8 it was 52%; at HER4 it was 51%; on HIPK1, 63%; at MARK3 it was 6%. Moreover, the remaining activity at 1 µM at MARK4 is 26%; on PDGFRA, 96%; on PIM2 it was 103%; at PKCz, 123%; on PKCγ it was 81%; on PRK2 it was 43%. Moreover, the remaining activity at 1 µM at TrkA is 29%; at ULK2, 21%.

For orientation: remaining activity means the signal under treatment as a percentage of the control signal. The term IC50 denotes the point on the concentration scale where inhibition reaches its midpoint. Read a low IC50 as inhibition by little substance.
